Among the data in US20250304567A1, “PYRROLIDIONE DERIVATIVES AS INHIBITORS OF NF KAPPA B INDUCING KINASE” (priority 2022, published 2025) are IC50 values, retold here.

As usually defined, the IC50 is the concentration that inhibits the measured activity by half.

The subject of assay [1] is p-IKKa levels in L363 (NIK translocated multiple myeloma) cells. Description: Effect of compounds on p-IKKa levels in L363 (NIK translocated multiple myeloma) cells (AlphaLISA SureFire Ultra p-IKKa Ser176/180). In kind it is cell-based, human. The conditions noted are these: Homo sapiens, L-363, p-IKKa levels in L363 cells; average if tested more than once; read-out: Assay 2 IC50. A digest of the protocol: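 Phospho-IKKa (Ser176/180) in lysates quantified by AlphaLISA after 6 h compound exposure, 11-point threefold dilutions, 0.3% DMSO. L363 cells were pre-stimulated overnight and assayed with 250 ng/ml BAFF and 10 μM MG132; % inhibition fitted sigmoidally for IC50, duplicate curves.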
In general terms: Alpha assays give light when donor and acceptor beads are brought close together.

The target in assay [2] is Recombinant Human NF-kappaB-Inducing Kinase (NIK/MAP3K14) (Homo sapiens, UniProt Q99558). The assay can be described thus: Inhibition of auto-phosphorylation of recombinant human NIK/MAP3K14 activity (AlphaScreen). The format is biochemical. Particulars: 5 μM ATP, 1 nM NIK, average if tested more than once. A digest of the protocol:
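AlphaScreen detection of phospho-Ser176/180 after 1 nM GST-NIK auto-phosphorylates for 2 h at 25 °C with 5 μM ATP (50 mM Tris pH 7.5, 0.7% DMSO). IC50s come from sigmoidal curves of % inhibition against log dose, using enzyme-free, ATP-free low controls and full-activity high controls.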

Chain of Recombinant Human NF-kappaB-Inducing Kinase (NIK/MAP3K14) (Q99558 whole entry): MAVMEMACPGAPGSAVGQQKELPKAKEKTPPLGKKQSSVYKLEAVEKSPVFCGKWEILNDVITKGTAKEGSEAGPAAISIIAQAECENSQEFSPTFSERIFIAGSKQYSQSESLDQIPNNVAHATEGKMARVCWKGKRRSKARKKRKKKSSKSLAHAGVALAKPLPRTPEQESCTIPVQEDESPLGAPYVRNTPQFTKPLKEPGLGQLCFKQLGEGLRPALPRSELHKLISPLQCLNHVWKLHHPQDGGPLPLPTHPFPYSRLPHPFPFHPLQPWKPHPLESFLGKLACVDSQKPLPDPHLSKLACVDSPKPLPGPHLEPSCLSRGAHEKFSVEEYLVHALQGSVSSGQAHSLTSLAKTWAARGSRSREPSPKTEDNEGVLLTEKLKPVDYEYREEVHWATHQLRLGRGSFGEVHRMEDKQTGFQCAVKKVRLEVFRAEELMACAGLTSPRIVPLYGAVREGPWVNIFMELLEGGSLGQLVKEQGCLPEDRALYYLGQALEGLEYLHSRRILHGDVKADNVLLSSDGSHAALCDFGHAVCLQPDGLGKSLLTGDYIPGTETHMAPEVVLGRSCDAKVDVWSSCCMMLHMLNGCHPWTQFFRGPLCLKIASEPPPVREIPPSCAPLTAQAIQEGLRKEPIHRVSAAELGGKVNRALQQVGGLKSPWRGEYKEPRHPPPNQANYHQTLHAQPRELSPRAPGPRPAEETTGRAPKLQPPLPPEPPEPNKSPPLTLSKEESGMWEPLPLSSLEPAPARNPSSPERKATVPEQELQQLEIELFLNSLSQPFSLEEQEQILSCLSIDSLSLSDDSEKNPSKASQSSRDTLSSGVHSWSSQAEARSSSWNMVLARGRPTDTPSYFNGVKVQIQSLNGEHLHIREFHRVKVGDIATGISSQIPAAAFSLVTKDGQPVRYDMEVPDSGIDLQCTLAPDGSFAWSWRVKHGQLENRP

Regarding `CN1CC(Nc2nccc(-c3csc(-c4cccc([C@]5(O)CCN(C)C5=O)c4)n3)n2)CCC1=O` (some centres unmarked) [Example 222], the half-maximal inhibitory concentration (IC50) is > 501 nM in assay [1] and < 100 nM in assay [2].
Consider `CN1CCC[C@H](Nc2nccc(-c3csc(-c4cccc([C@]5(O)CCN(C)C5=O)c4)n3)n2)C1=O` [Example 223], for which the IC50 in assay [1] and in assay [2] was > 501 nM throughout.
For the molecule `CN1CC[C@@](O)(c2cccc(-c3nc(-c4ccnc(NC5(c6ccccn6)CC5)n4)cs3)c2)C1=O` [Example 224], the IC50 in assay [1] is > 501 nM; in assay [2], 100 to 500 nM.
In the case of `CN1CC[C@@](O)(c2cccc(-c3nc(-c4ccnc(NC5CCc6cccnc65)n4)cs3)c2)C1=O` (some centres unmarked) [Example 225], the results for the IC50 in assay [1] and in assay [2] were > 501 nM and 100 to 500 nM, respectively.
As for `CN1CC[C@@](O)(c2cccc(-c3nc(-c4ccnc(NC5(c6ncccn6)CC5)n4)cs3)c2)C1=O` [Example 226], the 50% inhibitory concentration (IC50) in assay [1] and in assay [2] was > 501 nM throughout.
As for `CN1CC[C@@](O)(c2cccc(-c3nc(-c4ccnc(NC5CCOc6cccnc65)n4)cs3)c2)C1=O` (some centres unmarked) [Example 227], the IC50 is > 501 nM in assay [1] and < 100 nM in assay [2].
For `CN1CC[C@@](O)(c2cccc(-c3nc(-c4ccnc(NC5CCN(C6COC6)CC5)n4)cs3)c2)C1=O` [Example 228] the same measures were > 501 nM and > 501 nM.
As to `CC(Nc1nccc(-c2csc(-c3cccc([C@]4(O)CCN(C)C4=O)c3)n2)n1)C(=O)N1CCN(C)CC1` (some centres unmarked) [Example 229], the 50% inhibitory concentration (IC50) in assay [1] is > 501 nM; in assay [2], 100 to 500 nM.
On to `CN1CC[C@@](O)(c2cccc(-c3nc(-c4ccnc(NC5COC5)n4)cs3)c2)C1=O` [Example 230], for which the IC50 in assay [1] was 100 to 500 nM; in assay [2], < 100 nM.
`CN1CC[C@@](O)(c2cccc(-c3nc(-c4ccnc(NCCCNS(C)(=O)=O)n4)cs3)c2)C1=O` [Example 231]: the results for the IC50 in assay [1] and in assay [2] were > 501 nM and 100 to 500 nM, respectively.
As for `CN1CC[C@@](O)(c2cccc(-c3nc(-c4ccnc(NCCCS(C)(=O)=O)n4)cs3)c2)C1=O` [Example 232], the values for the IC50 in assay [1] and in assay [2] were > 501 nM and 100 to 500 nM, respectively.
For the molecule `Cc1nc(Nc2nccc(-c3csc(-c4cccc([C@]5(O)CCN(C)C5=O)c4)n3)n2)sc1C` [Example 233], the values for the IC50 in assay [1] and in assay [2] were 100 to 500 nM and < 100 nM, respectively.
For the molecule `CN1CC[C@@](O)(c2cccc(-c3nc(-c4ccnc(NCCC(F)(F)F)n4)cs3)c2)C1=O` [Example 236], the 50% inhibitory concentration (IC50) was > 501 nM in assay [1] and < 100 nM in assay [2].
As for `CN1CC[C@@](O)(c2cccc(-c3nc(-c4ccnc(NCCNS(C)(=O)=O)n4)cs3)c2)C1=O` [Example 237], the figures for the IC50 in assay [1] and in assay [2] were > 501 nM and < 100 nM, respectively.
For the molecule `CN1CC[C@@](O)(c2cccc(-c3nc(-c4ccnc(NCCCOCC(F)(F)F)n4)cs3)c2)C1=O` [Example 238], the half-inhibitory concentration (IC50) in assay [1] is > 501 nM; in assay [2], 100 to 500 nM.
Take `CN1CC[C@@](O)(c2cccc(-c3nc(-c4ccnc(NCCC(C)(C)O)n4)cs3)c2)C1=O` [Example 239]: the IC50 in assay [1] is > 501 nM; in assay [2], 100 to 500 nM.
As for `CN1CC[C@@](O)(c2cccc(-c3nc(-c4ccnc(NCC5(O)CC5)n4)cs3)c2)C1=O` [Example 240], the IC50 in assay [1] was > 501 nM; in assay [2], 100 to 500 nM.
Turning to `CN1CC[C@@](O)(c2cccc(-c3nc(-c4ccnc(NC5CCC(F)(F)CC5)n4)cs3)c2)C1=O` [Example 241], the results for the IC50 in assay [1] and in assay [2] were > 501 nM and < 100 nM, respectively.
As to `COCCCNc1nccc(-c2csc(-c3cccc([C@]4(O)CCN(C)C4=O)c3)n2)n1` [Example 242], the IC50 in assay [1] was > 501 nM; in assay [2] it was 100 to 500 nM.
As for `CN1CC[C@@](O)(c2cccc(-c3nc(-c4ccnc(N[C@H]5CC[C@@H](C#N)CC5)n4)cs3)c2)C1=O` [Example 243], the IC50 in assay [1] was > 501 nM; in assay [2] it was < 100 nM.
On to `Cc1cn(CC(F)(F)F)nc1Nc1nccc(-c2csc(-c3cccc([C@]4(O)CCN(C)C4=O)c3)n2)n1` [Example 245], for which the IC50 in assay [1] and in assay [2] was > 501 nM in each case.
With `CN1CC[C@@](O)(c2cccc(-c3nc(-c4ccnc(NCCCN5CCOCC5)n4)cs3)c2)C1=O` [Example 246], the concentration for half-maximal inhibition (IC50) in assay [1] and in assay [2] was > 501 nM in each case.
Turning to `Cc1csc(Nc2nccc(-c3csc(-c4cccc([C@]5(O)CCN(C)C5=O)c4)n3)n2)n1` [Example 247], the values for the IC50 in assay [1] and in assay [2] were 100 to 500 nM and < 100 nM, respectively.
On to `CN1CC[C@@](O)(c2cccc(-c3nc(-c4ccnc(Nc5nc(C(F)(F)F)cs5)n4)cs3)c2)C1=O` [Example 248], for which the values for the IC50 in assay [1] and in assay [2] were 100 to 500 nM and < 100 nM, respectively.
In the case of `Cc1ncc(Nc2nccc(-c3csc(-c4cccc([C@]5(O)CCN(C)C5=O)c4)n3)n2)s1` [Example 249], the IC50 in assay [1] and in assay [2] was > 501 nM throughout.
With `CN1CC[C@@](O)(c2cccc(-c3nc(-c4ccnc(N[C@H]5CCOC5)n4)cs3)c2)C1=O` [Example 250], the half-inhibitory concentration (IC50) in assay [1] is > 501 nM; in assay [2] it was < 100 nM.
As for `CN1CC[C@@](O)(c2cccc(-c3nc(-c4ccnc(N[C@@H]5CCOC5)n4)cs3)c2)C1=O` [Example 251], the 50% inhibitory concentration (IC50) in assay [1] is > 501 nM; in assay [2], < 100 nM.
For `CN1CC[C@@](O)(c2cccc(-c3nc(-c4ccnc(N[C@H]5CC[C@H](O)C5)n4)cs3)c2)C1=O` [Example 252] the same measures were > 501 nM and 100 to 500 nM.
Take `CN1CC[C@@](O)(c2cccc(-c3nc(-c4ccnc(N[C@H]5CC[C@@H](O)C5)n4)cs3)c2)C1=O` [Example 253]: the IC50 in assay [1] was > 501 nM; in assay [2] it was < 100 nM.
For the molecule `CN1CC[C@@](O)(c2cccc(-c3nc(-c4ccnc(N[C@H]5CCC[C@H](O)C5)n4)cs3)c2)C1=O` [Example 254], the figures for the IC50 in assay [1] and in assay [2] were > 501 nM and 100 to 500 nM, respectively.
Regarding `CN1CC[C@@](O)(c2cccc(-c3nc(-c4ccnc(N[C@H]5CCC[C@@H](O)C5)n4)cs3)c2)C1=O` [Example 255], the IC50 is > 501 nM in assay [1] and 100 to 500 nM in assay [2].
Take `CN1CC[C@@](O)(c2cccc(-c3nc(-c4ccnc(Nc5cc(C(F)(F)F)n(C)n5)n4)cs3)c2)C1=O` [Example 256, (R)-3-Hydroxy-1-methyl-3-(3-(4-(2-((1-methyl-5-(trifluoromethyl)-1H-pyrazol-3-yl)amino)pyrimidin-4-yl)thiazol-2-yl)phenyl)pyrrolidin-2-one]: the IC50 in assay [1] was > 501 nM; in assay [2], < 100 nM.
As to `CN1CC[C@@](O)(c2cccc(-c3nc(-c4ccnc(Nc5ccn(C(F)(F)F)n5)n4)cs3)c2)C1=O` [Example 257, (R)-3-Hydroxy-1-methyl-3-(3-(4-(2-((1-(trifluoromethyl)-1H-pyrazol-3-yl)amino)pyrimidin-4-yl)thiazol-2-yl)phenyl)pyrrolidin-2-one], the values for the IC50 in assay [1] and in assay [2] were > 501 nM and < 100 nM, respectively.
On to `CN1CC[C@@](O)(c2cccc(-c3nc(-c4ccnc(Nc5ccn(CC(F)F)n5)n4)cs3)c2)C1=O` [Example 258, (R)-3-(3-(4-(2-((1-(2,2-Difluoroethyl)-1H-pyrazol-3-yl)amino)pyrimidin-4-yl)thiazol-2-yl)phenyl)-3-hydroxy-1-methylpyrrolidin-2-one], for which the half-maximal inhibitory concentration (IC50) in assay [1] was 100 to 500 nM; in assay [2] it was < 100 nM.
With `CN1CC[C@@](O)(c2cccc(-c3nc(-c4ccnc(Nc5ccn(C6CC6)n5)n4)cs3)c2)C1=O` [Example 259, (R)-3-(3-(4-(2-((1-Cyclopropyl-1H-pyrazol-3-yl)amino)pyrimidin-4-yl)thiazol-2-yl)phenyl)-3-hydroxy-1-methylpyrrolidin-2-one], the IC50 in assay [1] was 100 to 500 nM; in assay [2], < 100 nM.
Regarding `COCCn1ccc(Nc2nccc(-c3csc(-c4cccc([C@]5(O)CCN(C)C5=O)c4)n3)n2)n1` [Example 260, (R)-3-Hydroxy-3-(3-(4-(2-((1-(2-methoxyethyl)-1H-pyrazol-3-yl)amino)pyrimidin-4-yl)thiazol-2-yl)phenyl)-1-methylpyrrolidin-2-one], the 50% inhibitory concentration (IC50) in assay [1] was 100 to 500 nM; in assay [2], < 100 nM.
Turning to `CN1CC[C@@](O)(c2cccc(-c3nc(-c4ccnc(Nc5cc(Cl)n(C)n5)n4)cs3)c2)C1=O` [Example 261, (R)-3-(3-(4-(2-((5-Chloro-1-methyl-1H-pyrazol-3-yl)amino)pyrimidin-4-yl)thiazol-2-yl)phenyl)-3-hydroxy-1-methylpyrrolidin-2-one], the concentration for half-maximal inhibition (IC50) in assay [1] is 100 to 500 nM; in assay [2] it was < 100 nM.
In the case of `CN(C)C(=O)Cn1ccc(Nc2nccc(-c3csc(-c4cccc([C@]5(O)CCN(C)C5=O)c4)n3)n2)n1` [Example 262, (R)-2-(3-((4-(2-(3-(3-Hydroxy-1-methyl-2-oxopyrrolidin-3-yl)phenyl)thiazol-4-yl)pyrimidin-2-yl)amino)-1H-pyrazol-1-y)-N,N-dimethylacetamide], the values for the half-inhibitory concentration (IC50) in assay [1] and in assay [2] were > 501 nM and < 100 nM, respectively.
In the case of `CN1CC[C@@](O)(c2cccc(-c3nc(-c4ccnc(Nc5cnn(C6CC6)c5)n4)cs3)c2)C1=O` [Example 263, (R)-3-(3-(4-(2-((1-Cyclopropyl-1H-pyrazol-4-yl)amino)pyrimidin-4-yl)thiazol-2-yl)phenyl)-3-hydroxy-1-methylpyrrolidin-2-one], the IC50 in assay [1] was 100 to 500 nM; in assay [2], < 100 nM.
For `CN1CC[C@@](O)(c2cccc(-c3nc(-c4ccnc(Nc5cnn6ccccc56)n4)cs3)c2)C1=O` [Example 264, (R)-3-Hydroxy-1-methyl-3-(3-(4-(2-(pyrazolo[1,5-a]pyridin-3-ylamino)pyrimidin-4-yl)thiazol-2-yl)phenyl)pyrrolidin-2-one], the IC50 in assay [1] and in assay [2] was < 100 nM throughout.
